Reference: PMC3130094 (Pharmacological research : the official journal of the …, 2011)
Several values for one entry are separate records, joined by “and”; a condition that tells them apart may be missing. Equal entries are not always repeated. Entries after “also recorded” stand apart in the source; their conditions may differ. Where two headings read alike, the source gives them in different places. Non-standard residues stand in square brackets, D forms with d. Residues, ends and D or L forms follow the SMILES beside them. No end group written: not given here.

Key:
[1] = biological target: cloned tagged-ETA receptors; conditions: HEK 293 membranes ref [33]; cited from earlier work
[2] = biological target: ET receptors in pituitary tissue sections; conditions: pituitary tissue sections ref [32]; cited from earlier work
[3] = biological target: cloned tagged-ETB receptors; conditions: HEK 293 membranes ref [33]; cited from earlier work
[4] = system: ET receptors on intact ND7/104 cells; experiment: [125I]-ET-1 saturation binding to intact ND7/104 cells; set-up: species or system rat/mouse hybrid; conditions: read-out: KD (I-ET-1), 4 °C
ND7/104 cells [5] = experiment: Ratiometric Fura-2 calcium imaging, ND7/104 cells; format: cell-based, rat/mouse hybrid; conditions: for Effect on ET-1 (30 nM) calcium transient: MDL-12,330A 50 µM, five minutes before ET-1, ND7/104 cells
HEK 293T cells [6] = experiment: Ratiometric Fura-2 calcium imaging, HEK 293T cells; format: cell-based, human; conditions: for Effect on ET-1 (30 nM) calcium transient: MDL-12,330A 50 µM, five minutes before ET-1, HEK 293T cells
HEK 293 cells = experiment: Ratiometric Fura-2 calcium imaging, HEK 293 cells; format: cell-based, human
HEK 293T cells [7] = experiment: Intracellular cAMP enzyme immunoassay, HEK 293T cells; format: cell-based, human; conditions: ET-1 0.3 nM to 300 nM, 10 min 37 °C
ND7/104 cells [8] = experiment: Intracellular cAMP enzyme immunoassay, ND7/104 cells; format: cell-based, rat/mouse hybrid; conditions: ET-1 0.3 nM to 300 nM, 10 min 37 °C
[9] = system: ET receptors (ETA/ETB) on intact HEK 293 cells; conditions: for Ki: HEK 293 cells
[10] = biological target: T1, ET receptors (ETA/ETB) on intact HEK 293T cells (Homo sapiens, UniProt P25101); conditions: read-out: High affinity KI BQ-123; HEK 293T cells, high affinity site (assumed ETA)
T1 sequence (P25101 21-427): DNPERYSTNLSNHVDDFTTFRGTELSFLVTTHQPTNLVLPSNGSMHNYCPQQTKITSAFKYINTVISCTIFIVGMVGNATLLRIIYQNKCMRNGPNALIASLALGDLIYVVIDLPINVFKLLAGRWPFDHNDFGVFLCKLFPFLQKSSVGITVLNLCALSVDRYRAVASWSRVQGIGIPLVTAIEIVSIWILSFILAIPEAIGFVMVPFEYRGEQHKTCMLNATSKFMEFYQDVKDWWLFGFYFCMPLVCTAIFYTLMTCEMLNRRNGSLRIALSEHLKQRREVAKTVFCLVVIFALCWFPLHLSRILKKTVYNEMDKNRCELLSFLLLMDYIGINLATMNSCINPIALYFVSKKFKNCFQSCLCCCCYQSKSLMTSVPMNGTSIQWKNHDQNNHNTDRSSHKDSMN

[11] = system: ET receptors (ETA/ETB) on intact HEK 293T cells
[12] = system: ET receptors (ETA/ETB) on intact ND7/104 cells; experiment: Competition binding against 30 pM [125I]-ET-1, intact ND7/104 cells; set-up: species or system rat/mouse hybrid; conditions: 100 nM BQ-123, ND7/104 cells

[^125I]-ET-1: radio-iodinated endothelin-1 used as radioligand
Kd [1]: ~0.03 nM
Kd [2]: 0.071 nM
Kd [3]: ~0.01 nM
Kd [4]: 0.07 ± 0.01 nM

Cc1cc(C)cc(C(=O)N(C)[C@H](Cc2ccc(-c3ccccc3)cc2)C(=O)N[C@@H](Cc2c[nH]c3ccccc23)C(=O)O)c1 [IRL-2500]
Effect on ET-1 (30 nM) stimulated calcium increase (ND7/104 cells [5]; IRL-2500 50 nM, ND7/104 cells): without effect; also recorded: not affected
Effect on ET-1 (30 nM) stimulated calcium increase (HEK 293T cells [6]; IRL-2500 50 nM, HEK 293T cells): without effect; also recorded: not affected

Cl.c1ccc(C2CCCC2NC2=NCCCCCCCCCCC2)cc1 (stereo not drawn) [MDL-12,330A]
Effect on calcium response to ATP (ND7/104 cells [5]; MDL 12,330A 50 µM preincubation, ND7/104 cells): markedly diminished response to ATP
Effect on ET-1 (30 nM) calcium transient (ND7/104 cells [5]): same outcome
Effect on ET-1 (30 nM) calcium transient (ND7/104 cells [5]; listed as MDL 12,330A): did not affect negatively
Basal [Ca2+]in on application of antagonist/inhibitor alone (ND7/104 cells [5]; ND7/104 cells, MDL 12,330A 50 µM, data not shown): did not produce a significant effect; also recorded: did not elicit a significant rise of [Ca^2+]in
Basal [Ca2+]in on application of antagonist/inhibitor alone (HEK 293T cells [6]; HEK 293T cells, MDL 12,330A 50 µM, data not shown): did not produce a significant effect; also recorded: did not elicit a significant rise of [Ca^2+]in
Effect on ET-1 (30 nM) calcium transient (HEK 293T cells [6]): same outcome
Effect on ET-1 (30 nM) calcium transient (HEK 293T cells [6]; listed as MDL 12,330A): did not affect negatively

CCCC[C@@H](NC(=O)[C@@H](Cc1cn(C(=O)OC)c2ccccc12)NC(=O)[C@H](CC(C)(C)C)NC(=O)N1[C@H](C)CCC[C@@H]1C)C(=O)O [BQ-788]
Effect on ET-1 (30 nM) stimulated calcium increase (ND7/104 cells [5]; BQ-788 100 nM (Figure 6B: 100 and 200 nM), ND7/104 cells): without effect; also recorded: not affected
Effect on ET-1 (30 nM) stimulated calcium increase (HEK 293T cells [6]; BQ-788 100 nM (Figure 6B: 100 and 200 nM), HEK 293T cells): without effect; also recorded: not affected

Endothelin-1 (CSCSSLMDKECVYFCHLDIIW; ends and bridges not checked; cysteine pairing not given here; UniProt P05305 53-73, looked up) [ET-1]
[Ca2+]in response to ET-1 (normalized to ATP 40 µM) (HEK 293 cells; ET-1 30 or 100 nM): neither of these concentrations of ET-1 produced a detectable increase of [Ca^2+]in; also recorded: does not promote intracellular calcium mobilization; also recorded: this effect was not observed
Share of cells showing [Ca2+]in mobilization (ND7/104 cells [5]; ET-1 30 nM and 100 nM, ND7/104 cells): ~ 35%
[Ca2+]in response to ET-1 (normalized to ATP 40 µM) (ND7/104 cells [5]; ET-1 30 or 100 nM, ND7/104 cells): caused an increase in [Ca]in
[Ca2+]in response to ET-1 in the absence of extracellular calcium (ND7/104 cells [5]; calcium-free Ringer, ND7/104 cells): not diminished; also recorded: did not affect the response
Share of cells showing [Ca2+]in mobilization (HEK 293T cells [6]; ET-1 30 nM and 100 nM, HEK 293T cells): ~ 35%
[Ca2+]in response to ET-1 (normalized to ATP 40 µM) (HEK 293T cells [6]; ET-1 30 or 100 nM, HEK 293T cells): caused an increase in [Ca]in
[Ca2+]in response to ET-1 in the absence of extracellular calcium (HEK 293T cells [6]; calcium-free Ringer, HEK 293T cells): not diminished; also recorded: did not affect the response
Intracellular cAMP accumulation (HEK 293T cells [7]): did not record a rise of intracellular cAMP; also recorded: None of the ET-1 concentrations tested produced a significant effect
Intracellular cAMP accumulation (ND7/104 cells [8]): did not record a rise of intracellular cAMP; also recorded: None of the ET-1 concentrations tested produced a significant effect

Nc1ncnc2c1ncn2[C@@H]1O[C@H](COP(=O)(O)OP(=O)(O)OP(=O)(O)O)[C@@H](O)[C@H]1O [ATP]
Calcium response to ATP (HEK 293 cells; ATP 40 µM): induced a strong and comparable calcium response
Calcium response to ATP (ND7/104 cells [5]; ATP 40 µM, ND7/104 cells): induced a strong and comparable calcium response
Calcium response to ATP (HEK 293T cells [6]; ATP 40 µM, HEK 293T cells): induced a strong and comparable calcium response

COc1ccc2c(c1)CC[C@@H]1[C@@H]2CC[C@]2(C)[C@@H](NCCCCCCN3C(=O)C=CC3=O)CC[C@@H]12 [U73122]
Effect on ET-1 (30 nM) induced calcium transient (ND7/104 cells [5]; U73122 10 µM, 30 min pretreatment, normalized to ionomycin, ND7/104 cells): complete inhibition
Effect on calcium response to ATP (ND7/104 cells [5]; U73122 10 µM, ND7/104 cells): abrogated
Effect on response elicited by bradykinin (ND7/104 cells [5]; U73122, ND7/104 cells, data not shown): does not inhibit
Effect on ET-1 (30 nM) induced calcium transient (HEK 293T cells [6]; U73122 10 µM, 30 min pretreatment, normalized to ionomycin, HEK 293T cells): complete inhibition
Effect on calcium response to ATP (HEK 293T cells [6]; U73122 10 µM, HEK 293T cells): abrogated

CC(C)C[C@@H]1NC(=O)[C@@H](C(C)C)NC(=O)[C@@H]2CCCN2C(=O)[C@@H](CC(=O)O)NC(=O)[C@@H](Cc2c[nH]c3ccccc23)NC1=O [BQ-123] (cyclo(L[dW][dD]P[dV]); ring closure inferred)
Effect on ET-1 (30 nM) stimulated calcium increase (ND7/104 cells [5]; BQ-123 50 nM, ND7/104 cells): blocked; also recorded: completely prevented
Effect on ET-1 (30 nM) stimulated calcium increase (HEK 293T cells [6]; BQ-123 50 nM, HEK 293T cells): blocked; also recorded: completely prevented
ETA binding defined by BQ-123, share of specific [125I]-ET-1 binding ([9]; 100 nM BQ-123, HEK 293 cells): 85.3 ± 19% and 85 ± 19%
Ki ([9]; read-out: KI (BQ-123), 30 pM [125I]-ET-1): 0.39 ± 0.14 nM
Ki ([9]; read-out: Low affinity KI BQ-123, low affinity site): 195 ± 136 nM
Ki [10]: 5.47 ± 1.52 nM
ETA binding defined by BQ-123, share of specific [125I]-ET-1 binding ([11]; 100 nM BQ-123, HEK 293T cells): 75 ± 9%
Low affinity Ki BQ-123 ([11]; HEK 293T cells, low affinity site): too high to allow its estimation
Ki ([11]; read-out: KI (BQ-123), HEK 293T cells, 30 pM [125I]-ET-1): 0.21 ± 0.01 nM
ETA binding defined by BQ-123, share of specific [125I]-ET-1 binding [12]: 75.2 ± 22.2% and 75 ± 22%
